ChEMBL document CHEMBL4421728, “Bach1 Inhibitors in Combination with Nrf2 Activators and Pharmaceutical Compositions Thereof” (2017)

Legend:
[1] = target: T1, Transcription regulator protein BACH1 (Homo sapiens) (UniProt O14867); experiment: Inhibition of Bach1 in normal human lung fibroblasts assessed as induction of HMOX protein expression at 0.039 uM incubated for 16 to 18 hrs in presence of 0.039 uM Nrf2 activator Bardoxolone methyl by immunostaining relative to control
T1 sequence (whole entry): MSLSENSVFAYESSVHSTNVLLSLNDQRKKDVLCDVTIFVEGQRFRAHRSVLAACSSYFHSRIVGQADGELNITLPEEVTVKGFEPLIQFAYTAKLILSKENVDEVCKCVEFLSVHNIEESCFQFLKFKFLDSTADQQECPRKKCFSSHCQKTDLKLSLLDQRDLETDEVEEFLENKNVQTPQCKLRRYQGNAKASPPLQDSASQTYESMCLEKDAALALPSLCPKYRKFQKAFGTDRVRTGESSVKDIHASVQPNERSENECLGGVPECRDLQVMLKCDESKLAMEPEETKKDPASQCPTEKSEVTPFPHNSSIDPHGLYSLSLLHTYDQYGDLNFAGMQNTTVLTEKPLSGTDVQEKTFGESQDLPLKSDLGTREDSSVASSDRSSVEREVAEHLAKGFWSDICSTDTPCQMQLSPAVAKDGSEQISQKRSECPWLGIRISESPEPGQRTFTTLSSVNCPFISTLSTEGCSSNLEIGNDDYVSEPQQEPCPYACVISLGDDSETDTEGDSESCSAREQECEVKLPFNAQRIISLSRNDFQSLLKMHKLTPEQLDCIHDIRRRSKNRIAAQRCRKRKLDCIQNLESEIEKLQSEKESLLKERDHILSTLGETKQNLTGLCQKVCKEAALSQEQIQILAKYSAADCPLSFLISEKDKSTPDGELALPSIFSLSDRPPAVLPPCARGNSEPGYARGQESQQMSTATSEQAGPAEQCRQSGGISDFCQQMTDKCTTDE

[2] = target: T1, Transcription regulator protein BACH1 (Homo sapiens); experiment: Inhibition of Bach1 in normal human lung fibroblasts assessed as induction of HMOX protein expression at 0.625 uM incubated for 16 to 18 hrs in presence of 0.039 uM Nrf2 activator Bardoxolone methyl by immunostaining relative to control
[3] = target: T1, Transcription regulator protein BACH1 (Homo sapiens); experiment: Inhibition of Bach1 in normal human lung fibroblasts assessed as induction of HMOX protein expression at 1.25 uM incubated for 16 to 18 hrs in presence of 0.019 uM Nrf2 activator Bardoxolone methyl by immunostaining relative to control
[4] = target: T1, Transcription regulator protein BACH1 (Homo sapiens); experiment: Inhibition of Bach1 in normal human lung fibroblasts assessed as induction of HMOX protein expression at 0.312 uM incubated for 16 to 18 hrs in presence of 0.078 uM Nrf2 activator Bardoxolone methyl by immunostaining relative to control
[5] = target: T1, Transcription regulator protein BACH1 (Homo sapiens); experiment: Inhibition of Bach1 in normal human lung fibroblasts assessed as induction of HMOX protein expression at 2.5 uM incubated for 16 to 18 hrs in presence of 0.312 uM Nrf2 activator Bardoxolone methyl by immunostaining relative to control
[6] = target: T1, Transcription regulator protein BACH1 (Homo sapiens); experiment: Inhibition of Bach1 in normal human lung fibroblasts assessed as induction of HMOX protein expression at 0.019 uM incubated for 16 to 18 hrs in presence of 0.312 uM Nrf2 activator Bardoxolone methyl by immunostaining relative to control
[7] = target: T1, Transcription regulator protein BACH1 (Homo sapiens); experiment: Inhibition of Bach1 in normal human lung fibroblasts assessed as induction of HMOX protein expression at 0.078 uM incubated for 16 to 18 hrs in presence of 0.0048 uM Nrf2 activator Bardoxolone methyl by immunostaining relative to control
[8] = target: T1, Transcription regulator protein BACH1 (Homo sapiens); experiment: Inhibition of Bach1 in normal human lung fibroblasts assessed as induction of HMOX protein expression at 0.625 uM incubated for 16 to 18 hrs in presence of 0.0048 uM Nrf2 activator Bardoxolone methyl by immunostaining relative to control
[9] = target: T1, Transcription regulator protein BACH1 (Homo sapiens); experiment: Inhibition of Bach1 in normal human lung fibroblasts assessed as induction of HMOX protein expression at 0.019 uM incubated for 16 to 18 hrs in presence of 0.019 uM Nrf2 activator Bardoxolone methyl by immunostaining relative to control
[10] = target: T1, Transcription regulator protein BACH1 (Homo sapiens); experiment: Inhibition of Bach1 in normal human lung fibroblasts assessed as induction of HMOX protein expression at 0.019 uM incubated for 16 to 18 hrs in presence of 0.078 uM Nrf2 activator Bardoxolone methyl by immunostaining relative to control
[11] = target: T1, Transcription regulator protein BACH1 (Homo sapiens); experiment: Inhibition of Bach1 in normal human lung fibroblasts assessed as induction of HMOX protein expression at 1.25 uM incubated for 16 to 18 hrs in presence of 0.078 uM Nrf2 activator Bardoxolone methyl by immunostaining relative to control
[12] = target: T1, Transcription regulator protein BACH1 (Homo sapiens); experiment: Inhibition of Bach1 in normal human lung fibroblasts assessed as induction of HMOX protein expression at 2.5 uM incubated for 16 to 18 hrs in presence of 0.039 uM Nrf2 activator Bardoxolone methyl by immunostaining relative to control
[13] = target: T1, Transcription regulator protein BACH1 (Homo sapiens); experiment: Inhibition of Bach1 in normal human lung fibroblasts assessed as induction of HMOX protein expression at 0.039 uM incubated for 16 to 18 hrs in presence of 0.156 uM Nrf2 activator Bardoxolone methyl by immunostaining relative to control
[14] = target: T1, Transcription regulator protein BACH1 (Homo sapiens); experiment: Inhibition of Bach1 in normal human lung fibroblasts assessed as induction of HMOX protein expression at 0.019 uM incubated for 16 to 18 hrs in presence of 0.039 uM Nrf2 activator Bardoxolone methyl by immunostaining relative to control
[15] = target: T1, Transcription regulator protein BACH1 (Homo sapiens); experiment: Inhibition of Bach1 in normal human lung fibroblasts assessed as induction of HMOX protein expression at 0.078 uM incubated for 16 to 18 hrs in presence of 0.019 uM Nrf2 activator Bardoxolone methyl by immunostaining relative to control
[16] = target: T1, Transcription regulator protein BACH1 (Homo sapiens); experiment: Inhibition of Bach1 in normal human lung fibroblasts assessed as induction of HMOX protein expression at 2.5 uM incubated for 16 to 18 hrs in presence of 0.078 uM Nrf2 activator Bardoxolone methyl by immunostaining relative to control
[17] = target: T1, Transcription regulator protein BACH1 (Homo sapiens); experiment: Inhibition of Bach1 in normal human lung fibroblasts assessed as induction of HMOX protein expression at 0.078 uM incubated for 16 to 18 hrs in presence of 0.0024 uM Nrf2 activator Bardoxolone methyl by immunostaining relative to control
[18] = target: T1, Transcription regulator protein BACH1 (Homo sapiens); experiment: Inhibition of Bach1 in normal human lung fibroblasts assessed as induction of HMOX protein expression at 0.078 uM incubated for 16 to 18 hrs in presence of 0.078 uM Nrf2 activator Bardoxolone methyl by immunostaining relative to control
[19] = target: T1, Transcription regulator protein BACH1 (Homo sapiens); experiment: Inhibition of Bach1 in normal human lung fibroblasts assessed as induction of HMOX protein expression at 1.25 uM incubated for 16 to 18 hrs in presence of 0.312 uM Nrf2 activator Bardoxolone methyl by immunostaining relative to control
[20] = target: T1, Transcription regulator protein BACH1 (Homo sapiens); experiment: Inhibition of Bach1 in normal human lung fibroblasts assessed as induction of HMOX protein expression at 0.312 uM incubated for 16 to 18 hrs in presence of 0.312 uM Nrf2 activator Bardoxolone methyl by immunostaining relative to control

SMILES: CNC(=O)c1ccc2c(c1)nc(Nc1nc3ccc(OC(F)(F)F)cc3s1)n2C
- fold change (FC) [1]: 14.7
- fold change (FC) [2]: 17.2
- fold change (FC) [3]: 15.9
- fold change (FC) [4]: 21.1
- fold change (FC) [5]: 10
- fold change (FC) [6]: 17.2
- fold change (FC) [7]: 4.72
- fold change (FC) [8]: 17.1
- fold change (FC) [9]: 10
- fold change (FC) [10]: 22.3
- fold change (FC) [11]: 15.2
- fold change (FC) [12]: 14.7
- fold change (FC) [13]: 17.2
- fold change (FC) [14]: 15.9
- fold change (FC) [15]: 13.2
- fold change (FC) [16]: 14.3
- fold change (FC) [17]: 4.25
- fold change (FC) [18]: 19.5
- fold change (FC) [19]: 10.5
- fold change (FC) [20]: 17.4
